Measured values as given in US20240285784A1, “PEPTIDIC CONJUGATES OF SN38 USEFUL IN THE TREATMENT OF CANCER” (FUNDACIÓ INSTITUT DE RECERCA BIOMÈDICA (IRB BARCELONA), priority 2020, published 2024).
Converted amounts (≈) assume the structure as drawn. Where a SMILES comes first, the peptide text is derived from it. Bridges are numbered along the chain shown (N, C = ends). [ ]: non-standard residue; d: D form. The star is where a group is joined. X6 = CCc1c2c(nc3ccc(OC(=O)OCc4ccc(NC(=O)[C@H](CCCNC(N)=O)NC(=O)[C@@H](NC(=O)COCC(=O)*)C(C)C)cc4)cc13)-c1cc3c(c(=O)n1C2)COC(=O)[C@]3(O)CC; X7 = CCc1c2c(nc3ccc(OC(=O)*)cc13)-c1cc3c(c(=O)n1C2)COC(=O)[C@]3(O)CC; Nva = CCC[C@H](N)C(=O)O; Dap = NC[C@H](N)C(=O)O

What was measured:
[1] = Evaluation of solubility in water; type: physicochemical; details: at 1 mg/mL
Experimental: 25 mg of SN38-linker A-MiniAp4 were dissolved in H2O, showing a completely transparent solution. This means that SN38-linker A-MiniAp4 has a solubility in water higher than 5 mg/mL, more than 400-fold the solubility in water described for SN38 (Mol. Pharmaceutics, 2016, 13, 379-390).

[2] = Turbidimetric aqueous solubility; type: physicochemical; details: 37 °C, pH 7.4, aqueous buffer, kinetic from dmso stock, Turbidity aqueous solubility, Estimated precipitation range
Experimental: Each test compound concentration was then further diluted 1 in 100 in buffer (0.01 M phosphate buffered saline pH 7.4) so that the final DMSO concentration was 1% and the final test compound concentrations were 1, 3, 10, 30 and 100 μM. The experiment was performed at 37° C. and each concentration was incubated in 7 replicate wells. The plates were incubated for 2 hr at 37° C. before the absorbance was measured at 620 nm.

Row | solubility at 2 h ([2]; Calculated mid-range) | solubility at 2 h ([2]; Lower bond) | solubility at 2 h ([2]; Upper bond) | SMILES | solubility in water [1]
1 | – | – | – | CCc1c2c(nc3ccc(OC(=O)OCc4ccc(NC(=O)[C@H](CCCNC(N)=O)NC(=O)[C@@H](NC(=O)COCC(=O)N[C@H]5CNC(=O)C[C@@H](C(N)=O)NC(=O)[C@H](CC(C)C)NC(=O)[C@H](C)NC(=O)[C@H]([C@@H](C)O)NC(=O)[C@H](CCC(=O)O)NC(=O)[C@@H]6CCCN6C(=O)[C@H](C)NC(=O)[C@H](CCCCN)NC5=O)C(C)C)cc4)cc13)-c1cc3c(c(=O)n1C2)COC(=O)[C@]3(O)CC [G2B-004 (Id)] (X6-[Dap]KAPETALD-NH2; lactam 1-9) | good solubility
2 | – | – | – | CCC[C@H](NC(=O)CNC(=O)Oc1ccc2nc3c(c(CC)c2c1)Cn1c-3cc2c(c1=O)COC(=O)[C@]2(O)CC)C(=O)N1CCC[C@H]1C(=O)NCC(=O)N[C@H]1CNC(=O)C[C@@H](C(N)=O)NC(=O)[C@H](CC(C)C)NC(=O)[C@H](C)NC(=O)[C@H]([C@@H](C)O)NC(=O)[C@H](CCC(=O)O)NC(=O)[C@@H]2CCCN2C(=O)[C@H](C)NC(=O)[C@H](CCCCN)NC1=O [G2B-005 (Ie)] (X7-G[Nva]PG[Dap]KAPETALD-NH2; lactam 5-13) | good solubility
3 | 11.5 µM (≈ 5.51 µg/mL) | 3 µM (≈ 1.44 µg/mL) | 20 µM (≈ 9.59 µg/mL) | COC(=O)C1=C(C)NC(C)=C(C(=O)OCCN(C)Cc2ccccc2)C1c1cccc([N+](=O)[O-])c1 (centres unmarked) [Nicardipine, reference compound] | –
